In one test the test system is CCRF-CEM. The test is described as follows: CCK-8 tumor cell proliferation, CCRF-CEM. The format is cell-based, Human. The following applies: for IC50: Homo sapiens, Table 18, FAK inhibitor based, CCRF-CEM, read-out: IC50 inhibiting proliferation of tumor cells, CCRF-CEM; for IC50 for inhibiting the proliferation of tumor cells, CCRF-CEM: 96 h. On the set-up: IC50 for inhibiting the proliferation of tumor cells, CCRF-CEM: scale not given here. On the procedure:
(§1) The tumor cells used herein were cultured in a cell culture medium listed in table 4 at 37° C. in an incubator with 5% CO2. Prior to experimentation, all cells used were correctly identified by STR profiling, and tested negative for mycoplasma through routine screenings.
(§2) IC50 values of the compounds of the present disclosure (including the compounds in Tables 1 and 3, and compounds of examples) were measured using the Meilun Cell Counting Kit-8 kit from Dalian Meilun Biotech Co., Ltd. Assay details are as follows: tumor cells were seeded in a 96-well plate at a density listed in Table 5. After 24 h, 100 μL of the inoculated cells were treated with 0.5 μL of the compounds of the present disclosure (including the compounds in Tables 1 and 3, and compounds of examples) at 10 different successively decreasing concentrations (starting at the highest concentration of 10 μM; 5-fold serial dilutions). After the cells were treated with the compounds of the present disclosure for a period of time, the cell viability detection reagent was added to the culture medium for cell viability assessment according to the instructions provided with the CCK-8 kit. […] The growth inhibition of the compounds of the present disclosure on cells was plotted by Prism Graphpad software, and the IC50 values of the compounds of the present disclosure were calculated therefrom.

A further test has as its system MDA-MB-231. Briefly: CCK-8 tumor cell proliferation, MDA-MB-231. The class given is cell-based, Human. On the set-up: IC50 for inhibiting the proliferation of tumor cells, MDA-MB-231: scale not given here. Conditions: for IC50: Homo sapiens, Table 18, FAK inhibitor based, MDA-MB-231, read-out: IC50 inhibiting proliferation of tumor cells, MDA-MB-231. As to the method:
as §1, §2

The next test relates to MM.1S. Briefly: CCK-8 tumor cell proliferation, MM.1S. The class given is cell-based. The following applies: for IC50: Homo sapiens, MM1.S, Table 18, FAK inhibitor based, MM.1S, read-out: IC50 inhibiting proliferation of tumor cells, MM.1S; for IC50 for inhibiting the proliferation of tumor cells, MM.1S: 72 h. As to the method: as §1, §2
A further test deals with SW620. Briefly: CCK-8 tumor cell proliferation, SW620. The class given is cell-based, Human. Conditions: Homo sapiens, SW-620; Table 18, FAK inhibitor based; SW620; read-out: IC50 inhibiting proliferation of tumor cells, SW620. As to the method: as §1, §2
The subject of another test is CAL-62. The test is described as follows: CCK-8 tumor cell proliferation, CAL-62. The format is cell-based, Human. Conditions: Homo sapiens; Table 18, FAK inhibitor based; CAL-62; read-out: IC50 inhibiting proliferation of tumor cells, CAL-62. On the procedure: as §1, §2
The test system of a further test is Mino. The test is described as follows: CCK-8 tumor cell proliferation, Mino. Conditions: for IC50 for inhibiting the proliferation of tumor cells, Mino: 72 h; for IC50: Homo sapiens, Table 18, FAK inhibitor based, Mino, read-out: IC50 inhibiting proliferation of tumor cells, Mino. The format is cell-based, Human. On the procedure:
as §1, §2

For the next test, the system named is PC-9. The test is described as follows: CCK-8 tumor cell proliferation, PC-9. The class given is cell-based, Human. Conditions: Homo sapiens; Table 18, FAK inhibitor based; PC-9; read-out: IC50 inhibiting proliferation of tumor cells, PC-9. As to the method:
The tumor cells used herein were cultured in a cell culture medium listed in table 4 at 37° C. in an incubator with 5% CO2.
as §2, with “After” for “IC50 values of the compounds of the present disclosure (including the compounds in Tables 1 and 3, and compounds of examples) were measured using the Meilun Cell Counting Kit-8 kit from Dalian Meilun Biotech Co., Ltd. Assay details are as follows: tumor cells were seeded in a 96-well plate at a density listed in Table 5. After”

The next test concerns Kasumi-1. The test is described as follows: CCK-8 tumor cell proliferation, Kasumi-1. The class given is cell-based, Human. The following applies: 72 h. As to the method: as §1, §2
A further test concerns SR. Briefly: CCK-8 tumor cell proliferation, SR. The format is cell-based, Human. As to the method: as §1, §2
Where [1] appears, read: Table 7, designed based on BTK inhibitors.
Where [2] appears, read: Table 8, designed based on ER inhibitors.
Where [3] appears, read: Table 16, designed based on BET inhibitors.

Where only a bound is given, the exact number is not on record here.

Turning to `CNC(=O)c1ccccc1Nc1cc(Nc2ccc(N3CCC(N(C)Cc4ccc5c(c4)CN(C4CCC(=O)NC4=O)C5=O)CC3)cc2OC)ncc1C(F)(F)F` (stereo not shown) [GT-03679, 2-((2-((4-(4-(((2-(2,6-dioxopiperidin-3-yl)-1-oxoisoindolin-5-yl)methyl)(methyl)amino)piperidin-1-yl)-2-methoxyphenyl)amino)-5-(trifluoromethyl)pyridin-4-yl)amino)-N-methylbenzamide], the IC50 in the test on CCRF-CEM was 500 to 1000 nM; in the test on MDA-MB-231, less than 50 nM; in the test with MM.1S it was 100 to 500 nM; with SW620 it was 100 to 500 nM; in the test on CAL-62 it was 50 to 100 nM.
As for `NC(=O)c1ccc(C2CCN(Cc3ccc4c(c3)CN(C3CCC(=O)NC3=O)C4=O)CC2)nc1-c1ccc(Oc2ccccc2)cc1` (stereo not shown) [GT-03693, 6-(1-((2-(2,6-dioxopiperidin-3-yl)-1-oxoisoindolin-5-yl)methyl)piperidin-4-yl)-2-(4-phenoxyphenyl)nicotinamide], the “IC50 for inhibiting the proliferation of tumor cells, CCRF-CEM” value in the test on CCRF-CEM (setting [1]) is recorded as “A+”. For the same compound, the “IC50 for inhibiting the proliferation of tumor cells, MM.1S” value in the test with MM.1S (setting [1]) is given as “A+”. The “IC50 for inhibiting the proliferation of tumor cells, Mino” value in the test with Mino (setting [1]) is listed as “A+”.
For the compound `CS(=O)(=O)c1cccc(CNc2nc(Nc3ccc(N4CCN(Cc5ccc6c(c5)CN(C5CCC(=O)NC5=O)C6=O)CC4)cc3)ncc2C(F)(F)F)c1` (stereo not shown) [GT-03792, 3-(5-((4-(4-((4-((3-(methylsulfonyl)benzyl)amino)-5-(trifluoromethyl)pyrimidin-2-yl)amino)phenyl)piperazin-1-yl)methyl)-1-oxoisoindolin-2-yl)piperidine-2,6-dione], the IC50 in the test on CCRF-CEM is less than 50 nM; with MDA-MB-231 it was less than 50 nM; in the test on MM.1S it was less than 50 nM; in the test on Mino it was 100 to 500 nM; in the test with SW620, less than 50 nM; in the test with PC-9, 1000 to 5000 nM. Moreover, the IC50 with CAL-62 was less than 50 nM.
Turning to `Nc1ncnc2c1c(-c1ccc(Oc3ccccc3)cc1)nn2C1CCN(Cc2cc3c(cc2F)C(=O)N(C2CCC(=O)NC2=O)C3)CC1` (stereo not shown) [GT-03605, 3-(5-((4-(4-amino-3-(4-phenoxyphenyl)-1H-pyrazolo[3,4-d]pyrimidin-1-yl)piperidin-1-yl)methyl)-6-fluoro-1-oxoisoindolin-2-yl)piperidine-2,6-dione], the “IC50 for inhibiting the proliferation of tumor cells, CCRF-CEM” value in the test on CCRF-CEM (setting [1]) is listed as “A+”. Further, in the test on MDA-MB-231 (Table 7, designed based on BTK inhibitors, 96 h), the “IC50 for inhibiting the proliferation of tumor cells, MDA-MB-231” value was “A+”. The “IC50 for inhibiting the proliferation of tumor cells, MM.1S” value with MM.1S (setting [1]) is listed as “A+”.
In the case of `CN(c1cccc(CNc2nc(Nc3ccc(C4CCN(Cc5ccc6c(c5)CN(C5CCC(=O)NC5=O)C6=O)CC4)cc3)ncc2C(F)(F)F)c1)S(C)(=O)=O` (stereo not shown) [GT-03742, N-(3-(((2-((4-(1-((2-(2,6-dioxopiperidin-3-yl)-1-oxoisoindolin-5-yl)methyl)piperidin-4-yl)phenyl)amino)-5-(trifluoromethyl)pyrimidin-4-yl)amino)methyl)phenyl)-N-methylmethanesulfonamide], the IC50 with MDA-MB-231, in the test on MM.1S and in the test with CAL-62 was 1000 to 5000 nM each time.
For the compound `O=C1CCC(N2Cc3cc(CN4CCN(c5ccc(C(=C(CCCl)c6ccccc6)c6ccccc6)cc5)CC4)ccc3C2=O)C(=O)N1` (stereo not shown) [GT-03637, 3-(5-((4-(4-(4-chloro-1,2-diphenylbut-1-en-1-yl)phenyl)piperazin-1-yl)methyl)-1-oxoisoindolin-2-yl)piperidine-2,6-dione], the “IC50 for inhibiting the proliferation of tumor cells, CCRF-CEM” value with CCRF-CEM (setting [2]) is reported as “A+”. For the same compound, in the test on Kasumi-1 (setting [2]), the “IC50 for inhibiting the proliferation of tumor cells, Kasumi-1” value is reported as “A+”. In addition, the “IC50 for inhibiting the proliferation of tumor cells, Mino” value in the test with Mino (setting [2]) is given as “A+”.
Take `Cc1sc2c(c1C)C(c1ccc(Cl)cc1)=N[C@@H](CC(=O)N1CCN(Cc3ccc4c(c3)CN(C3CCC(=O)NC3=O)C4=O)CC1)c1nnc(C)n1-2` (stereo partly drawn) [GT-02967, 3-(5-((4-(2-((S)-4-(4-chlorophenyl)-2,3,9-trimethyl-6H-thieno[3,2-f][1,2,4]triazolo[4,3-a][1,4]diazepin-6-yl)acetyl)piperazin-1-yl)methyl)-1-oxoisoindolin-2-yl)piperidine-2,6-dione]: the “IC50 for inhibiting the proliferation of tumor cells, CCRF-CEM” value in the test with CCRF-CEM (setting [3]) was “A+”. In addition, the “IC50 for inhibiting the proliferation of tumor cells, Kasumi-1” value in the test on Kasumi-1 (setting [3]) is given as “A+”.
As for `CC(C)(C)c1cnc(CSc2cnc(NC(=O)C3CCN(Cc4ccc5c(c4)CN(C4CCC(=O)NC4=O)C5=O)CC3)s2)o1` (stereo not shown) [GT-03242, N-(5-(((5-(tert-butyl)oxazol-2-yl)methyl)thio)thiazol-2-yl)-1-((2-(2,6-dioxopiperidin-3-yl)-1-oxoisoindolin-5-yl)methyl)piperidine-4-carboxamide], the “IC50 for inhibiting the proliferation of tumor cells, MM.1S” value in the test on MM.1S (Table 12, designed based on CDK9 inhibitors) is listed as “A+”. Further, the “IC50 for inhibiting the proliferation of tumor cells, SR” value in the test with SR (Table 12, designed based on CDK9 inhibitors, 72 h) is on record as “A+”.
For the compound `CNC(=O)c1ccccc1Nc1cc(Nc2ccc(N3CCC(N(C)Cc4ccc5c(c4F)CN(C4CCC(=O)NC4=O)C5=O)CC3)cc2OC)ncc1C(F)(F)F` (stereo not shown) [GT-03728, 2-((2-((4-(4-(((2-(2,6-dioxopiperidin-3-yl)-4-fluoro-1-oxoisoindolin-5-yl)methyl)(methyl)amino)piperidin-1-yl)-2-methoxyphenyl)amino)-5-(trifluoromethyl)pyridin-4-yl)amino)-N-methylbenzamide], the IC50 in the test on MDA-MB-231 was less than 50 nM; in the test with SR (Homo sapiens, Table 18, FAK inhibitor based, SR, read-out: IC50 inhibiting proliferation of tumor cells, SR), less than 50 nM; with Mino it was 1000 to 5000 nM; with SW620 it was 100 to 500 nM; in the test with PC-9, 1000 to 5000 nM; in the test on CAL-62, 50 to 100 nM.
`CS(=O)(=O)c1cccc(CNc2nc(Nc3ccc(N4CCN(Cc5ccc6c(c5F)CN(C5CCC(=O)NC5=O)C6=O)CC4)cc3)ncc2C(F)(F)F)c1` (stereo not shown) [GT-03817, 3-(4-fluoro-5-((4-(4-((4-((3-(methylsulfonyl)benzyl)amino)-5-(trifluoromethyl)pyrimidin-2-yl)amino)phenyl)piperazin-1-yl)methyl)-1-oxoisoindolin-2-yl)piperidine-2,6-dione]: the IC50 is less than 50 nM with CCRF-CEM; less than 50 nM in the test on MDA-MB-231; less than 50 nM in the test with MM.1S; 50 to 100 nM in the test on Mino; less than 50 nM in the test on SW620; less than 50 nM in the test on CAL-62.
On to `CS(=O)(=O)c1cccc(CNc2nc(Nc3ccc(N4CCN(Cc5cc6c(cc5F)C(=O)N(C5CCC(=O)NC5=O)C6)CC4)cc3)ncc2C(F)(F)F)c1` (stereo not shown) [GT-03818, 3-(6-fluoro-5-((4-(4-((4-((3-(methylsulfonyl)benzyl)amino)-5-(trifluoromethyl)pyrimidin-2-yl)amino)phenyl)piperazin-1-yl)methyl)-1-oxoisoindolin-2-yl)piperidine-2,6-dione], for which the IC50 in the test on CCRF-CEM, with MDA-MB-231, in the test on MM.1S, in the test on Mino, with SW620 and in the test with CAL-62 was less than 50 nM throughout.

The values above are taken from US20260199323A1, “LIGAND COMPOUNDS FOR E3 UBIQUITIN LIGASE, PROTEIN DEGRADERS DEVELOPED ON BASIS OF LIGAND COMPOUNDS, AND USES THEREOF” (GLUETACS THERAPEUTICS (SHANGHAI) CO., LTD., priority 2021, published 2026).
